Data on 11 molecules can be found in PMC11945486, “TAS1R2/TAS1R3 Single-Nucleotide Polymorphisms Affect Sweet Taste Receptor Activation by Sweeteners: The SWEET Project” (Nutrients, 2025).

The target in this experiment is T1, human TAS1R2-WT/TAS1R3-F514L (Homo sapiens, UniProt Q7RTX0+Q8TE23, F514L).
T1 construct: expressed in transfected cells; host or cells: HEK293T stably expressing Gα16gust44
T1 sequence (Q8TE23 20-839): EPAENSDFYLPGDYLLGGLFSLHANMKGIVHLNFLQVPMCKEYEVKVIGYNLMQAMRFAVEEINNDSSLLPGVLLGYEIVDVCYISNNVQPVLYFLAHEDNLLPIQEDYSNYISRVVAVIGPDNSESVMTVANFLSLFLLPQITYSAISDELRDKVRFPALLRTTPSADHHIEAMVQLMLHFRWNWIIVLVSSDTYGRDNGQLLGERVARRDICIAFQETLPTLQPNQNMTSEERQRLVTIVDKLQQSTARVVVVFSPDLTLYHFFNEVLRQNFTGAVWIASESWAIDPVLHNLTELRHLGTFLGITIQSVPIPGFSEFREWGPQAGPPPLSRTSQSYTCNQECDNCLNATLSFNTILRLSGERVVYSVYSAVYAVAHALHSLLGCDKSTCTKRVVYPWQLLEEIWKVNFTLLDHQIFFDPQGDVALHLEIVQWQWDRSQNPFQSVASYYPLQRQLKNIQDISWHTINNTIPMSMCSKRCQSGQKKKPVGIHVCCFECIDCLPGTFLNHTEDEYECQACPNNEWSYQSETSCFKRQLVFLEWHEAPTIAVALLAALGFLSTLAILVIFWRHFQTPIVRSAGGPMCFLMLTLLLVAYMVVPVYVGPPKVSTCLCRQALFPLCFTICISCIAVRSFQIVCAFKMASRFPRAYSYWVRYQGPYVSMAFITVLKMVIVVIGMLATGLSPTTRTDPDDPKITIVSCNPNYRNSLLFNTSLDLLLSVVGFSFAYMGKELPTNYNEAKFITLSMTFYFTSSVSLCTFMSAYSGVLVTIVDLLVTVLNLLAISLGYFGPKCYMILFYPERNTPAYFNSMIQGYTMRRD
T1 sequence (Q7RTX0 21-852 F514L): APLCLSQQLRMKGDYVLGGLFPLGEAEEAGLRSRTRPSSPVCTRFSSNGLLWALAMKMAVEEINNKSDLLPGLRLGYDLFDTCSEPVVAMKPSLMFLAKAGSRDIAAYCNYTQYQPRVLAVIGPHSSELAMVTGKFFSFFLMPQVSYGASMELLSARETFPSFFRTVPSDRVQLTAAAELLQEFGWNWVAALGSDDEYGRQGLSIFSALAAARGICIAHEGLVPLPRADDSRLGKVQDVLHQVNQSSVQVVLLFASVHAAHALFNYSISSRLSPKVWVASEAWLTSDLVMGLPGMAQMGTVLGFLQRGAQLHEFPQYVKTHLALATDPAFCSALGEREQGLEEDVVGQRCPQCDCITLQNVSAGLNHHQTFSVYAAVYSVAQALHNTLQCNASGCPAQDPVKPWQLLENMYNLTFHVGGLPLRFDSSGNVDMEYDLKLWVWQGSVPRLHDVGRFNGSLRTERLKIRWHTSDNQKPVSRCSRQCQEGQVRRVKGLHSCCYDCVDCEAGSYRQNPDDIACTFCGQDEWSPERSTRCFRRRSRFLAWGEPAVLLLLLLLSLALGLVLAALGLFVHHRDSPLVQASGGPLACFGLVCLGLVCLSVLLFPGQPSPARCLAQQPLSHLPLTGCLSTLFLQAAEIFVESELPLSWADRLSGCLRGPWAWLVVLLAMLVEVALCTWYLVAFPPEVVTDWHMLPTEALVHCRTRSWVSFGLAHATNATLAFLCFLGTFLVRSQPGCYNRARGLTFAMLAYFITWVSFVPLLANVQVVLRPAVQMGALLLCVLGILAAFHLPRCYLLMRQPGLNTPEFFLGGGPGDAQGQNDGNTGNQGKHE
As to the kind of experiment: Calcium mobilisation assay, TAS1R2-WT with TAS1R3 variant F514L. The experiment is classed as cell-based. To be noted: for Max ΔF/F0: maximal signal amplitude. From the text:
The coding sequences for TAS1R2 and TAS1R3 were commercially synthesised, and the human codon was optimised for expression in human cells. The coding sequences of human TAS1R2 and TAS1R3 were subcloned and inserted into the mammalian expression vectors pcDNA6/myc-HisA and pcDNA4/myc-HisA (Invitrogen; Thermo Fisher Scientific; Illkirch, France) between the EcoRI and NotI restriction sites, generating the plasmids pcDNA6-TAS1R2 and pcDNA4-TAS1R3, respectively. To increase protein expression in mammalian cells, an upstream start codon was used, which was a sequence called MAX, corresponding to the QBI SP163 element also described in pcDNA4-HisMax (Invitrogen; Thermo Fisher Scientific; Illkirch, France). To measure the expression level of the receptor by immunohistochemistry, we used the FLAG sequence ([…]) in the C-terminal position, which encodes the FLAG tag epitope. SNP variants of TAS1R2 and TAS1R3 were constructed based on […], respectively, using site-directed mutagenesis (Genewiz; Leipzig, Germany).
The HEK293T cells were kindly provided by Jay P. Slack (Givaudan Flavors Corporation; Cincinnati, OH, USA). HEK293T cells stably transfected with Gα16gust44 [43, 67] were seeded in poly-D-lysine-coated clear-bottom black 96-well plates (0.35 × 10^5 cells/well) in high-glucose DMEM supplemented with 2 mM GlutaMAX, 10% dialysed foetal bovine serum with penicillin/streptomycin and G418 (400 μg/mL) at 37 °C and 6.3% CO2 in a humidified atmosphere as previously reported. […] As a negative control, HEK293T cells were mock-transfected with the empty expression vector. After a further 24 h of incubation, the HEK293T cells were washed with C1 buffer (130 mM NaCl, 5 mM KCl, 10 mM HEPES pH 7.4 and 2 mM CaCl2). The 96-well plates containing the cells were then stimulated with sweet-tasting compounds. […] Different concentration ranges were tested depending on the sweet compound injected. The Ca^2+ changes were expressed as fractional changes in fluorescent light intensity: ΔF/F = (F − F0)/F0, where F was the fluorescent light intensity at each point, and F0 was the value of emitted fluorescent light prior to stimulus application. To calculate dose–response relationships, the changes in fluorescence upon stimulus application were averaged, mock-subtracted and baseline-corrected. The dose–response data obtained were adjusted using a 4-parameter logistic equation. The half-maximal effective concentrations (EC50 values) and maximal signal amplitudes were calculated using SigmaPlot software (version 15.0) (Systat Software; San Jose, CA, USA).
For in vitro calcium mobilisation assay performed on hTAS1R2-SNPs, hTAS1R3-SNPs and mTAS1R3-I60T, 6 to 7 concentrations were tested for each sweet compound, plus buffer alone. All concentration–receptor combinations were measured in duplicate, and each experiment was repeated at least 4 times (8 wells/concentration). Results were expressed for each concentration as ΔF/F mean ± SEM and represented as dose–response curves.
In general terms: Calcium flux is commonly read through the fluorescence of an indicator in the cells.

Read-outs that look alike come from different tables or passages of the source. No end group written: not given here.

Broadly, the EC50 is the concentration at which the effect is half-maximal. For `OC[C@H]1O[C@H](O[C@]2(CCl)O[C@H](CCl)[C@@H](O)[C@@H]2O)[C@H](O)[C@@H](O)[C@H]1Cl` [Sucralose], the “R1 = Variant EC50/WT EC50” value is 1.3 and the “Max ΔF/F0” value was 0.49 ± 0.01. Further, the half-maximal effective concentration (EC50) (read-out: EC50) turned out to be 141 ± 3 µM.

On to `C[C@H](CC[C@@H](O[C@@H]1O[C@H](CO[C@@H]2O[C@H](CO)[C@@H](O)[C@H](O)[C@H]2O)[C@@H](O)[C@H](O)[C@H]1O[C@@H]1O[C@H](CO)[C@@H](O)[C@H](O)[C@H]1O)C(C)(C)O)[C@H]1CC[C@@]2(C)[C@@H]3CC=C4[C@@H](CC[C@H](O[C@@H]5O[C@H](CO[C@@H]6O[C@H](CO)[C@@H](O)[C@H](O)[C@H]6O)[C@@H](O)[C@H](O)[C@H]5O)C4(C)C)[C@]3(C)[C@H](O)C[C@]12C` [Mogroside V, mogroside V], for which the “R1 = Variant EC50/WT EC50” value was determined as 1.4 and the “Max ΔF/F0” value was 0.79 ± 0.02. Further, the concentration giving a half-maximal response (EC50) (read-out: EC50) turned out to be 44.7 ± 2.8 µM.

As to `COC(=O)[C@H](Cc1ccccc1)NC(=O)[C@H](CC(=O)O)NCCC(C)(C)C` [Neotame], the “R1 = Variant EC50/WT EC50” value came to 1.0 and the “Max ΔF/F0” value is 0.45 ± 0.01. In addition, where the note is “read-out: EC50”, the 50% effective concentration (EC50) amounted to 1.23 ± 0.06 µM.

Consider “brazzein (QDKCKKVYENYPVSKCQLANQCNYDCKLDKHARSGECFYDEKRNLQCICDYCEY; ends and bridges not checked; cysteine pairing not given here; UniProt P56552 1-54, looked up) [sweet-tasting protein obtained by recombinant production using the yeast Pichia pastoris]”, for which the “R1 = Variant EC50/WT EC50” value was found to be 0.4 and the “Max ΔF/F0” value stood at 1.07 ± 0.04. Moreover, the EC50 (brazzein) is 44.4 ± 6.4 µg/mL.

Take `C=C(C)[C@@H]1CC=C(/C=N/O)CC1` [Perillartine, perillartine]: the “R1 = Variant EC50/WT EC50” value is 1.0 and the “Max ΔF/F0” value was 1.40 ± 0.24. In addition, the concentration giving a half-maximal response (EC50) (read-out: EC50) turned out to be 13.9 ± 7.3 µM.

For the molecule `CC1=CC(=O)NS(=O)(=O)O1` [Acesulfame K, acesulfame K], the “R1 = Variant EC50/WT EC50” value is given as 0.7 and the “Max ΔF/F0” value is on record as 0.14 ± 0.01. In addition, where the note is “read-out: EC50”, the 50% effective concentration (EC50) came out at 442 ± 24 µM.

Take `C=C1C[C@@]23CC[C@H]4[C@@](C)(CCC[C@@]4(C)C(=O)O[C@@H]4O[C@H](CO)[C@@H](O)[C@H](O[C@@H]5O[C@H](CO)[C@@H](O)[C@H](O)[C@H]5O)[C@H]4O[C@@H]4O[C@H](CO)[C@@H](O)[C@H](O)[C@H]4O)[C@@H]2CC[C@]1(O[C@@H]1O[C@H](CO)[C@@H](O)[C@H](O[C@@H]2O[C@H](CO)[C@@H](O)[C@H](O)[C@H]2O)[C@H]1O[C@@H]1O[C@H](CO)[C@@H](O)[C@H](O)[C@H]1O)C3` [Rebaudioside M, rebaudioside M]: the “R1 = Variant EC50/WT EC50” value came to 0.8 and the “Max ΔF/F0” value is reported as 0.64 ± 0.02. In addition, for the setting “read-out: EC50”, the EC50 is 32.1 ± 2.5 µM.

For the molecule `O=S(=O)(O)NC1CCCCC1` [Cyclamate, cyclamate], under “read-out: EC50”, the EC50 was 1250 ± 30 µM.

With `COc1ccc(CCC(=O)c2c(O)cc(O[C@@H]3O[C@H](CO)[C@@H](O)[C@H](O)[C@H]3O[C@@H]3O[C@@H](C)[C@H](O)[C@@H](O)[C@H]3O)cc2O)cc1O` [NHDC, neohesperidin dihydrochalcone], the “R1 = Variant EC50/WT EC50” value was determined as 0.8 and the “Max ΔF/F0” value amounted to 1.21 ± 0.08. In addition, the EC50 (read-out: EC50) turned out to be 37.9 ± 8.4 µM.

On to thaumatin, for which the “R1 = Variant EC50/WT EC50” value worked out at 0.9 and the “Max ΔF/F0” value was found to be 0.72 ± 0.04.

B1: thaumatin (protein)
chain: ATFEIVNRCSYTVWAAASKGDAALDAGGRQLNSGESWTINVEPGTKGGKIWARTDCYFDDSGSGICKTGDCGGLLRCKRFGRPPTTLAEFSLNQYGKDYIDISNIKGFNVPMDFSPTTRGCRGVRCAADIVGQCPAKLKAPGGGCNDACTVFQTSEYCCTTGKCGPTEYSRFFKRLCPDAFSYVLDKPTTVTCPGSSNYRVTFCPTA
modifications: Eight disulfides
notes: sweet-tasting plant protein, E957
On to B1, for which, under “read-out: EC50”, the half-maximal effective concentration (EC50) amounted to 9.8 ± 1 µM.
